Measured values from the supplement of paper PMC10307832.

Key:
Test in all cases: relative viability (nuclei count vs DMSO), 5 days (fraction); higher = more cells survive
[1] = compound: CC1CC(=O)N(C2=CN=C(N=C2N1C3CCCC3)NC4=C(C=C(C=C4)C(=O)NC5CCN(CC5)C)OC)C [NPK76-II-72-1] + C[C@@H](Oc1cc(-c2cnn(C3CCNCC3)c2)cnc1N)c1c(Cl)ccc(F)c1Cl [Crizotinib] (partner 1 µM)
In short: (§1)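 Lung cancer cell lines in 1536-well plates got either a single drug or a fixed anchor-drug dose together with five library-drug doses (not always all listed) in √10 steps, by pin tool, on the day after seeding. Nuclei were counted after 5 days, and relative viability is the treated-to-vehicle ratio of nuclei counts. Values are medians of duplicate plates.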

[2] = compound: CC1CC(=O)N(C2=CN=C(N=C2N1C3CCCC3)NC4=C(C=C(C=C4)C(=O)NC5CCN(CC5)C)OC)C [NPK76-II-72-1] + CC(=O)c1c(C)c2cnc(Nc3ccc(N4CCNCC4)cn3)nc2n(C2CCCC2)c1=O [Palbociclib] (partner 0.5 µM)
In short: as §1

BI-2536 + Vorinostat = compound: CC[C@@H]1C(=O)N(C)c2cnc(Nc3ccc(C(=O)NC4CCN(C)CC4)cc3OC)nc2N1C1CCCC1 [BI-2536] + O=C(CCCCCCC(=O)Nc1ccccc1)NO [Vorinostat] (partner 1 µM)
In short: as §1

BI-2536 + Bortezomib = compound: CC[C@@H]1C(=O)N(C)c2cnc(Nc3ccc(C(=O)NC4CCN(C)CC4)cc3OC)nc2N1C1CCCC1 [BI-2536] + CC(C)C[C@H](NC(=O)[C@H](Cc1ccccc1)NC(=O)c1cnccn1)B(O)O [Bortezomib] (partner 0.002 µM)
In short: as §1

Cell Line | relative viability ([1]; first compound 0.01 µM) | relative viability ([1]; first compound 0.03162 µM) | relative viability ([1]; first compound 0.1 µM) | relative viability ([1]; first compound 0.3162 µM) | relative viability ([1]; first compound 1 µM) | relative viability ([2]; first compound 0.01 µM) | relative viability ([2]; first compound 0.03162 µM) | relative viability ([2]; first compound 0.1 µM) | relative viability ([2]; first compound 0.3162 µM) | relative viability ([2]; first compound 1 µM) | relative viability (BI-2536 + Vorinostat; first compound 0.01 µM) | relative viability (BI-2536 + Vorinostat; first compound 0.03162 µM) | relative viability (BI-2536 + Vorinostat; first compound 0.1 µM) | relative viability (BI-2536 + Vorinostat; first compound 0.3162 µM) | relative viability (BI-2536 + Vorinostat; first compound 1 µM) | relative viability (BI-2536 + Bortezomib; first compound 0.01 µM) | relative viability (BI-2536 + Bortezomib; first compound 0.03162 µM) | relative viability (BI-2536 + Bortezomib; first compound 0.1 µM) | relative viability (BI-2536 + Bortezomib; first compound 0.3162 µM) | relative viability (BI-2536 + Bortezomib; first compound 1 µM)
HARA | 0.993 | 1.2 | 1.03 | 1.01 | 1.24 | 0.27 | 0.267 | 0.254 | 0.21 | 0.295 | 0.626 | 0.511 | 0.422 | 0.0897 | 0.108 | 1.19 | 1.27 | 0.751 | 0.0898 | 0.0779
HCC-15 | 0.773 | 0.874 | 0.846 | 0.756 | 0.834 | 0.722 | 0.849 | 0.705 | 0.694 | 0.745 | 0.675 | 0.769 | 0.615 | 0.137 | 0.141 | 1.01 | 0.96 | 0.902 | 0.542 | 0.114
HCC-44 | 0.734 | 0.772 | 0.827 | 0.795 | 0.846 | 0.982 | 1.08 | 0.993 | 0.935 | 1.01 | 1.19 | 1.01 | 0.847 | 0.346 | 0.278 | 0.905 | 0.885 | 0.297 | 0.14 | 0.0751
IA-LM | 0.704 | 0.818 | 0.727 | 0.616 | 0.989 | – | – | – | – | – | 1.07 | 1.26 | 0.692 | 0.0844 | 0.0605 | 0.772 | 0.623 | 0.0686 | 0.0705 | 0.0718
LK-2 | 0.22 | 0.247 | 0.238 | – | 0.241 | 0.624 | 0.636 | 0.668 | 0.653 | 0.565 | 0.181 | 0.242 | 0.15 | 0.104 | 0.155 | – | – | – | – | –
NCI-H358 | 0.606 | 0.604 | 0.604 | 0.437 | 0.651 | 0.131 | 0.186 | 0.165 | – | 0.126 | 0.507 | 0.138 | 0.0931 | 0.0884 | 0.0847 | – | – | – | – | –
NCI-H522 | – | – | – | – | – | 0.866 | 1.02 | 0.981 | – | 1.1 | 0.785 | 0.933 | 0.533 | 0.277 | 0.284 | – | – | – | – | –
NCI-H596 | 1 | 1.04 | 0.95 | 1.02 | 1.05 | – | – | – | – | – | 0.644 | 0.664 | 0.551 | 0.228 | 0.206 | 1.09 | 1.18 | 0.759 | 0.733 | 0.328
NCI-H1299 | 0.921 | 0.911 | 0.984 | 0.932 | 0.919 | – | – | – | – | – | – | – | – | – | – | 0.985 | 1.05 | 0.981 | 0.419 | 0.351
NCI-H1395 | – | – | – | – | – | 0.627 | 0.621 | 0.621 | 0.661 | 0.616 | 0.669 | 0.431 | 0.285 | 0.311 | 0.356 | – | – | – | – | –
NCI-H1563 | 0.875 | 0.905 | 0.84 | 0.825 | 0.932 | – | – | – | – | – | – | – | – | – | – | 0.935 | 0.802 | 0.842 | 0.563 | 0.683
NCI-H1648 | – | – | – | – | – | 0.23 | 0.269 | 0.24 | 0.266 | 0.279 | 0.331 | 0.596 | 0.264 | 0.189 | 0.21 | – | – | – | – | –
NCI-H1703 | 0.525 | 0.754 | 0.774 | 0.641 | 0.628 | – | – | – | – | – | – | – | – | – | – | 0.313 | 0.252 | 0.13 | 0.161 | 0.11
NCI-H1792 | 1.05 | 0.817 | 0.968 | 1 | 1.07 | 0.698 | – | 0.672 | 0.662 | 0.68 | – | – | – | – | – | 0.985 | 1 | 1.06 | 0.716 | 0.147
NCI-H1793 | – | – | – | – | – | – | 0.324 | 0.352 | 0.256 | 0.366 | 0.695 | 0.352 | 0.17 | 0.117 | 0.18 | – | – | – | – | –
NCI-H1944 | 0.985 | 1.12 | 1.1 | 1.01 | 1.22 | 0.335 | 0.35 | 0.305 | 0.301 | 0.376 | 0.623 | 0.623 | 0.237 | 0.139 | 0.154 | – | – | – | – | –
NCI-H2170 | 1.08 | 1.18 | 1.11 | – | 1.3 | 0.395 | 0.358 | 0.435 | 0.285 | 0.415 | 0.787 | 0.736 | 0.159 | 0.144 | 0.175 | – | – | – | – | –
NCI-H2342 | – | – | – | – | – | 0.487 | 0.468 | 0.47 | 0.508 | 0.541 | – | 0.705 | 0.79 | 0.445 | 0.385 | – | – | – | – | –
SK-MES-1 | 0.967 | 0.999 | 1.01 | 0.956 | 1.02 | 0.325 | 0.342 | 0.26 | 0.313 | 0.385 | 1.17 | 0.934 | 0.441 | 0.136 | 0.188 | – | – | – | – | –
SW 900 | – | – | – | – | – | 0.53 | 0.632 | 0.464 | 0.441 | 0.584 | 0.445 | 0.598 | 0.481 | 0.159 | 0.218 | – | – | – | – | –
